Consider 1 molecule from publication PMC11984586, “A novel spider toxin as a selective antagonist of the Kv1 subfamily of voltage-gated potassium channels through gating modulation” (The Journal of Biological Chemistry, 2025).

Bridge positions count the residues as written; N and C are the ends. Peptide text beside a SMILES is read from it.

What all share (type): cell-based, human
The subject of series [1] is hERG. Briefly: Selectivity patch clamp, non-Kv1 channels. The conditions noted are these: 10 μM MrVIII; n = 3–5. Here is the method: CHO-K1 cells were selected for expressing Kv channels due to their lack of endogenous Kv channels, while HEK293 or ND7/23 cells were used for Nav and Cav channel expression. CHO-K1 cells were cultured in a Dulbecco's modified Eagle's medium/Ham's F-12 nutrient mixture (DMEM-F12) medium, and HEK293T and ND7/23 cells in DMEM medium, all supplemented with 10% fetal bovine serum and 1% penicillin-streptomycin (all from Gibco, Thermo Fisher Scientific, Inc) under standard conditions (37 °C, 5% CO2, and saturated humidity). These cell lines were purchased from Stem Cell Bank, Chinese Academy of Sciences. […] After 4 to 6 h transfection, cells were seeded onto poly-lysine–coated coverslips, and 24 to 36 h later, transfected cells were ready for patch-clamp analysis. […]
For Kv current recordings, the bath solution contained (in mM) the following: 140 NaCl, 5 KCl, 1 MgCl2, 2 CaCl2, 10 glucose, and 10 Hepes (pH 7.3, adjusted with NaOH), and the pipette solution contained (in mM) the following: 140 KCl, 2.5 MgCl2, 11 EGTA, and 10 Hepes (pH 7.3, adjusted with KOH). […] Whole cell conductance (G) at each depolarizing voltage (V) was determined using the equation: G = I/(V−Vrev), where I is the current amplitude, and Vrev is the reversal potential. […] The steady-state fast inactivation of Kv1.3 was measured using a two-pulses protocol. […]

Series [2] relates to Kv1.1/1.3 S1-S2 chimeric channel. Briefly: Whole-cell patch clamp, chimeric channel. Particulars: +30 mV, mean ± SD. An excerpt:
(§1) To investigate the structural determinants underlying the differential regulatory effects of MrVIII on Kv1 channels, we employed a chimeric channel strategy. Using Kv1.3 as the template, the S1-S2, S3-S4, and S5-S6 transmembrane helices and their respective linkers from Kv1.1 were inserted to generate chimeras, generating the Kv1.3/1.1 S1-S2, Kv1.3/1.1 S3-S4, and Kv1.3/1.1 S5-S6 chimeric channels. […] These findings indicate that the S3-S4 is the key determinant for the differential inhibition of Kv1.1 and Kv1.3 by MrVIII. To further validate this conclusion, we constructed a reverse chimeric channel using Kv1.1 as the template, inserting the corresponding regions from Kv1.3 into Kv1.1. […] This finding more directly illustrates the exchange of the channel's voltage-dependence phenotype in toxin inhibition by swapping this S3-S4 between Kv1.1 and Kv1.3. […] In addition to confirming the differential role of S3-S4 between Kv1.1 and Kv1.3, we also substituted the S3-S4 of Kv1.4 and Kv1.7 into Kv1.3 to analyze MrVIII's inhibition profile. […] The IC50 for Kv1.3/1.7 S3-S4 could not be fitted, and inhi%(495 ms) was only 23.1 ± 10.0% (Fig. S2, E and F).
(§2) The cDNA of hKv1.1, hKv1.2, hKv1.3, rKv1.4, hKv1.5, mKv1.6, and hKv1.7 were subcloned into mammalian expression vectors pcDNA3.1 or pCMV-blank vectors, as well as other plasmids described previously ([35]). Channel mutants were generated by site-directed mutations. Briefly, the parental channel plasmid was amplified using a pair of oppositely directed primers harboring the designed mutation site, with KOD Fx (TOYOBO Co, Ltd). The resulting PCR mix was treated with FastDigest DpnI (Thermo Fisher Scientific) to remove the methylated template. Ten microliters of the digested product was then used to transform 100 μl E. coli DH5α competent cells. Transformants were randomly picked and sequenced to confirm the presence of the intended mutation.
(§3) CHO-K1 cells were selected for expressing Kv channels due to their lack of endogenous Kv channels, while HEK293 or ND7/23 cells were used for Nav and Cav channel expression. CHO-K1 cells were cultured in a Dulbecco's modified Eagle's medium/Ham's F-12 nutrient mixture (DMEM-F12) medium, and HEK293T and ND7/23 cells in DMEM medium, all supplemented with 10% fetal bovine serum and 1% penicillin-streptomycin (all from Gibco, Thermo Fisher Scientific, Inc) under standard conditions (37 °C, 5% CO2, and saturated humidity). These cell lines were purchased from Stem Cell Bank, Chinese Academy of Sciences. Channel plasmids were cotransfected with pEGFP-N1 (encoding GFP) into the respective cells using lipofectamine 2000, following the manufacturer's instructions (Invitrogen, Thermo Fisher Scientific, Inc.). Nav1.9-GFP plasmid was transfected into ND7/23 using the X-tremeGENE HP DNA Transfection Reagent (Roche). After 4 to 6 h transfection, cells were seeded onto poly-lysine–coated coverslips, and 24 to 36 h later, transfected cells were ready for patch-clamp analysis.
(§4) Patch clamp experiments were conducted using an electrophysiology platform comprising a MultiClamp 700B amplifier and an Axon Digidata 1550 AD/DA convertor (Axon Instruments). Data acquisition was performed with pClamp 10.5 software (Axon Instruments). All experiments were performed at room temperature.
(§5) For Kv current recordings, the bath solution contained (in mM) the following: 140 NaCl, 5 KCl, 1 MgCl2, 2 CaCl2, 10 glucose, and 10 Hepes (pH 7.3, adjusted with NaOH), and the pipette solution contained (in mM) the following: 140 KCl, 2.5 MgCl2, 11 EGTA, and 10 Hepes (pH 7.3, adjusted with KOH). Series resistance was maintained below 10 MΩ and compensated to 80%. Concentration–response curves were fitted by the Hill equation to determine the toxin's potency. Whole cell conductance (G) at each depolarizing voltage (V) was determined using the equation: G = I/(V−Vrev), where I is the current amplitude, and Vrev is the reversal potential. […]
(In general: Patch clamp records ionic current or voltage across a cell membrane.)

The subject of series [3] is Kv1.3/1.7 S3-S4 chimeric channel. Briefly: Whole-cell patch clamp, chimeric channel. The conditions noted are these: current at 495 ms, +30 mV, IC50 could not be fitted, mean ± SD, n = 5-6.
From the text: as §1, §2, §3, §4, §5

Series [4] has as its system Kv1.3/1.1 S1-S2 chimeric channel. Briefly: Whole-cell patch clamp, chimeric channel. Particulars: +30 mV, 500 ms, holding −80 mV, mean ± SD, n = 4-5, read-out: IC50, Kv1.3/1.1 S1-S2 current.
From the text: as §1, §2, §3, §4, §5

The subject of series [5] is Kv1.1/1.3 S3-S4 chimeric channel. Briefly: Whole-cell patch clamp, chimeric channel. Particulars: +30 mV, 500 ms, mean ± SD, n = 4-5, read-out: IC50, Kv1.1/1.3 S3-S4 current (complete inhibition).
From the text: as §1, §2, §3, §4, §5

The test system of series [6] is Kv1.3/1.1 S3-S4 chimeric channel. The series is described as follows: Whole-cell patch clamp, chimeric channel. Particulars: +30 mV, mean ± SD.
From the text: as §1, §2, §3, §4, §5

With `CC[C@H](C)[C@@H]1NC(=O)[C@H](Cc2ccc(O)cc2)NC(=O)[C@H](CCC(N)=O)NC(=O)[C@@H]2CCCN2C(=O)[C@@H]2CSSC[C@H](NC(=O)[C@H](C)NC(=O)[C@H](CO)NC(=O)[C@H](CCC(=O)O)NC(=O)[C@H](CCC(=O)O)NC(=O)[C@@H](N)[C@@H](C)O)C(=O)NCC(=O)NCC(=O)N[C@@H](Cc3ccccc3)C(=O)N[C@@H](CC(N)=O)C(=O)N[C@@H](C)C(=O)N[C@@H](CCCNC(=N)N)C(=O)N[C@H]3CSSC[C@H](NC1=O)C(=O)N[C@@H](CCCCN)C(=O)NCC(=O)N[C@@H](Cc1c[nH]c4ccccc14)C(=O)N[C@@H](CCCNC(=N)N)C(=O)N[C@@H]([C@@H](C)O)C(=O)N[C@@H](CCCCN)C(=O)N[C@@H](CCCNC(=N)N)C(=O)N[C@H](C(=O)N[C@@H](CC(C)C)C(=O)N[C@@H](CC(N)=O)C(=O)N1CCC[C@H]1C(=O)O)CSSC[C@H](NC(=O)[C@H](CCCCN)NC(=O)[C@H](Cc1c[nH]cn1)NC(=O)[C@H](CC(C)C)NC(=O)[C@@H]1CCCN1C3=O)C(=O)N2` [MrVIII] (H-TEESACGGFNARCPLHKCCPQYICKGWRTKRCLNP-OH; disulfide 6-19, 13-24, 18-32; N-terminus and C-terminus assumed), the “inhibition of hERG current” value in series [1] is “did not remarkably inhibit”. Besides, the IC50 in series [2] (current at 50 ms, n = 4-5) was found to be 103 ± 59.1 nM; in series [4] it was 1.9 ± 1.1 nM; in series [5], 1.7 ± 0.6 nM; in series [6] (current at 50 ms, n = 4-5) it was 230 ± 123 nM. Moreover, in series [2] (current at 495 ms), the “inhi%(495 ms), Kv1.1/1.3 S1-S2 current” value is 60.5 ± 18.5%. The “inhi%(495 ms), Kv1.3/1.7 S3-S4 current” value in series [3] is on record as 23.1 ± 10.0%. For the same molecule, the “inhi%(495 ms), Kv1.3/1.1 S3-S4 current” value in series [6] (current at 495 ms, negative = current enhanced) is listed as −10.0 ± 13.9%.
